{"source": "patent US20130012491A1", "about": "“PYRIMIDINE DERIVATIVES FOR USE AS SPHINGOSINE 1-PHOSPHATE 1 (S1P1) RECEPTOR AGONISTS” (GLAXO GROUP LIMITED, priority 2010, published 2013)", "note": "Counter-ions that a name gives are not always drawn."}
{"molecular_target": "T1, S1P3 (human Endothelial Differentiation G-protein Coupled Receptor 3 (EDG3)) (Homo sapiens, UniProt Q99500)", "T1 construct": "expressed in transfected cells; host or cells: GeneBLAzer EDG3-Ga15-NFAT-bla HEK 293T cells", "T1 sequence (Q99500 whole entry)": "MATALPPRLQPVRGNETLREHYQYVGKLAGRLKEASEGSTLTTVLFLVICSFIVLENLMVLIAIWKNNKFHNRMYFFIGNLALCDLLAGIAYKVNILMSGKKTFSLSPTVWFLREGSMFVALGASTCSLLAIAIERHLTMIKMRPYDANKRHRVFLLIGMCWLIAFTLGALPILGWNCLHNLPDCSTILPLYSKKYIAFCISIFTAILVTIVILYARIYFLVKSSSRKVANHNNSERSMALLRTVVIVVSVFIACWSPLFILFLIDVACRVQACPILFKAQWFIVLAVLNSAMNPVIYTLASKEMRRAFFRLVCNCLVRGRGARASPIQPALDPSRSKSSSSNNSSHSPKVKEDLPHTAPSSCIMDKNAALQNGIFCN", "experiment": "S1P3 GeneBlazer assay", "format": "cell-based", "settings": "agonist, EDG3-Ga15-NFAT-bla HEK 293T cells, beta-lactamase FRET readout", "protocol": "GeneBLAzer EDG3-Ga15-NFAT-bla HEK 293T cells (contain the human Endothelial Differentiation G-protein Coupled Receptor 3 (EDG3) and a beta-lactamase reporter gene under control of a […] response element and a promiscuous G Protein, Ga15, stably integrated into the GeneBLAzer Ga15-NFAT-bla HEK 293T cell line) were harvested from growth medium and suspended in assay medium (90% DMEM, 10% Charcoal-stripped FBS, 0.1 mM NEAA, 25 mM HEPES (pH 7.3), 100 U/ml penicillin, 100 μg/ml streptomycin) at a density of ˜200,000 cells/ml.\nAll test compounds were dissolved in DMSO at a concentration of 10 mM and were prepared in 100% DMSO to provide 10 point dose response curves. Test compounds prepared by Bravo (Velocity11) were added to wells in columns 2-11 and 13-22; DMSO was added to wells in columns 12 and 23 as unstimulated controls and assay medium was added to wells in columns 1 and 24 as cell-free controls. An S1P3 agonist was added to wells in row 2, columns 2-11 as stimulated controls and test compounds were added to wells in row 2, columns 13-22 and rows 3-15, columns 2-11/13-22 (row 1 and 16 were empty and not used). Compounds in solution were added to the assay plate (Greiner 781090) using an Echo (Labcyte) dose-response program (50 nl/well). The unstimulated and cell-free controls were loaded with 50 nl/well pure DMSO to ensure that the DMSO concentration was constant across the plate for all assays.\n50 μl of the cell suspension was added to each well in columns 2-23 of the plate (˜10,000 cells per well). 50 μl of assay medium was added to each well in the cell-free controls (columns 1 and 24). The cells were incubated overnight at 37° C./5% CO2.\n10 μl of 6× substrate mixture (LiveBLAzer™-FRET B/G substrate (CCF4-AM) Cat # K1096 from Invitrogen, Inc.) was added to each well using Bravo and the plates incubated at room temperature for 2 h in the dark. The plate was finally read on EnVision using one excitation channel (409 nm) and two emission channels (460 nm and 530 nm).\nThe blue/green emission ratio (460 nm/530 nm) was calculated for each well, by dividing the background-subtracted Blue emission values by the background-subtracted Green emission values. The dose response curve is based on sigmoidal dose-response model. All ratio data was normalized based upon the maximum emission ratio of positive control and minimum emission ratio of negative control (DMSO) on each plate. The intrinsic activity (IA) of each compound would be the normalized percentage of its maximum response after curve fitting.", "units": {"EC50": "µM"}}
{"compound": "CCc1c(CN2CCC(C(=O)O)CC2)cccc1-c1cnc(-c2ccc(OC(C)C)c(C(F)(F)F)c2)nc1", "note": "[Example 13, 1-[(2-ethyl-3-{2-[4-[(1-methylethyl)oxy]-3-(trifluoromethyl)phenyl]-5-pyrimidinyl}phenyl)methyl]-4-piperidinecarboxylic acid]", "EC50": "≤ 10"}
{"compound": "CCc1c(CCN2CC[C@H](C(=O)O)C2)cccc1-c1cnc(-c2ccc(OC(C)C)c(Cl)c2)nc1", "note": "[Example 30, (3S)-1-{2-[3-(2-{3-chloro-4-[(1-methylethyl)oxy]phenyl}-5-pyrimidinyl)-2-ethylphenyl]ethyl}-3-pyrrolidinecarboxylic acid]", "EC50": "≤ 2"}
{"compound": "CCc1c(-c2cnc(-c3ccc(OC(C)C)c(Cl)c3)nc2)cccc1C1CCN(CCC(=O)O)CC1", "note": "[Example 15, 3-{4-[3-(2-{3-chloro-4-[(1-methylethyl)oxy]phenyl}-5-pyrimidinyl)-2-ethylphenyl]-1-piperidinyl}propanoic acid trifluoroacetate]", "EC50": "≤ 10"}
{"compound": "CCc1c(CCN2CCCC(C(=O)O)C2)cccc1-c1cnc(-c2ccc(CC(C)C)c(C#N)c2)nc1", "note": "(stereo not shown) [Example 38, 1-[2-(3-{2-[3-cyano-4-(2-methylpropyl)phenyl]-5-pyrimidinyl}-2-ethylphenyl)ethyl]-3-piperidinecarboxylic acid]", "EC50": "≤ 10"}
{"compound": "CCc1c(CCN(C)CCC(=O)O)cccc1-c1cnc(-c2ccc(CC(C)C)c(C#N)c2)nc1", "note": "[Example 35, N-[2-(3-{2-[3-cyano-4-(2-methylpropyl)phenyl]-5-pyrimidinyl}-2-ethylphenyl)ethyl]-N-methyl-b-alanine]", "EC50": "≤ 10"}
{"compound": "CCc1c(CN2CC(C(=O)O)C2)cccc1-c1cnc(-c2ccc(OC(C)C)c(C(F)(F)F)c2)nc1", "note": "[Example 11, 1-[(2-ethyl-3-{2-[4-[(1-methylethyl)oxy]-3-(trifluoromethyl)phenyl]-5-pyrimidinyl}phenyl)methyl]-3-azetidinecarboxylic acid]", "EC50": "≤ 10"}
{"compound": "CCc1c(CCN2CCC(C(=O)O)C2)cccc1-c1cnc(-c2ccc(CC(C)C)c(C#N)c2)nc1", "note": "(stereo not shown) [Example 37, 1-[2-(3-{2-[3-cyano-4-(2-methylpropyl)phenyl]-5-pyrimidinyl}-2-ethylphenyl)ethyl]-3-pyrrolidinecarboxylic acid]", "EC50": "≤ 10"}
{"compound": "CCc1c(CCN2CCC(C(=O)O)C2)cccc1-c1cnc(-c2ccc(OC(C)C)c(Cl)c2)nc1", "note": "(stereo not shown) [Example 29, 1-{2-[3-(2-{3-chloro-4-[(1-methylethyl)oxy]phenyl}-5-pyrimidinyl)-2-ethylphenyl]ethyl}-3-pyrrolidinecarboxylic acid]", "EC50": "≤ 2"}
{"compound": "CCc1c(CCN2CCC(C(=O)O)CC2)cccc1-c1cnc(-c2ccc(OC(C)C)c(Cl)c2)nc1", "note": "[Example 33, 1-{2-[3-(2-{3-chloro-4-[(1-methylethyl)oxy]phenyl}-5-pyrimidinyl)-2-ethylphenyl]ethyl}-4-piperidinecarboxylic acid]", "EC50": "≤ 2"}
{"compound": "CCc1c(CCN2CC(C(=O)O)C2)cccc1-c1cnc(-c2ccc(CC(C)C)c(C#N)c2)nc1", "note": "[Example 36, 1-[2-(3-{2-{3-cyano-4-(2-methylpropyl)phenyl}-5-pyrimidinyl}-2-ethylphenyl)ethyl]-3-azetidinecarboxylic acid]", "EC50": "≤ 10"}
{"compound": "CCc1c(CCN2CCC(C(=O)O)CC2)cccc1-c1cnc(-c2ccc(CC(C)C)c(C#N)c2)nc1", "note": "[Example 40, 1-[2-(3-{2-[3-cyano-4-(2-methylpropyl)phenyl]-5-pyrimidinyl}-2-ethylphenyl)ethyl]-4-piperidinecarboxylic acid]", "EC50": "≤ 2"}
{"compound": "CCc1c(CNCCC(=O)O)cccc1-c1cnc(-c2ccc(OC(C)C)c(C(F)(F)F)c2)nc1", "note": "[Example 10, N-[(2-ethyl-3-{2-[4-[(1-methylethyl)oxy]-3-(trifluoromethyl)phenyl]-5-pyrimidinyl}phenyl)methyl]-b-alanine]", "EC50": "≤ 2"}
{"compound": "CCc1c(CCN2CCCC(C(=O)O)C2)cccc1-c1cnc(-c2ccc(OC(C)C)c(Cl)c2)nc1", "note": "(stereo not shown) [Example 31, 1-{2-[3-(2-{3-chloro-4-[(1-methylethyl)oxy]phenyl}-5-pyrimidinyl)-2-ethylphenyl]ethyl}-3-piperidinecarboxylic acid]", "EC50": "≤ 10"}
{"compound": "CCc1c(CCN2CC(C(=O)O)C2)cccc1-c1cnc(-c2ccc(OC(C)C)c(Cl)c2)nc1", "note": "[Example 28, N-{2-[3-(2-{3-chloro-4-[(1-methylethyl)oxy]phenyl}-5-pyrimidinyl)-2-ethylphenyl]ethyl}-3-azetidinecarboxylic acid]", "EC50": "≤ 2"}
{"compound": "CCc1c(CCN2CCC[C@H](C(=O)O)C2)cccc1-c1cnc(-c2ccc(OC(C)C)c(Cl)c2)nc1", "note": "[Example 32, (3S)-1-{2-[3-(2-{3-chloro-4-[(1-methylethyl)oxy]phenyl}-5-pyrimidinyl)-2-ethylphenyl]ethyl}-3-piperidinecarboxylic acid]", "EC50": "≤ 10"}
{"compound": "CCc1c(CCN(C)CC(=O)O)cccc1-c1cnc(-c2ccc(CC(C)C)c(C#N)c2)nc1", "note": "[Example 34, N-[2-(3-{2-[3-cyano-4-(2-methylpropyl)phenyl]-5-pyrimidinyl}-2-ethylphenyl)ethyl]-N-methylglycine trifluoroacetate]", "EC50": "≤ 10"}
{"compound": "CCc1c(CCN2CCC[C@H](C(=O)O)C2)cccc1-c1cnc(-c2ccc(CC(C)C)c(C#N)c2)nc1", "note": "[Example 39, (3S)-1-[2-(3-{2-[3-cyano-4-(2-methylpropyl)phenyl]-5-pyrimidinyl}-2-ethylphenyl)ethyl]-3-piperidinecarboxylic acid]", "EC50": "≤ 10"}
{"compound": "CCc1c(CCN(C)CC(=O)O)cccc1-c1cnc(-c2ccc(OC(C)C)c(Cl)c2)nc1", "note": "[Example 27, N-{2-[3-(2-{3-chloro-4-[(1-methylethyl)oxy]phenyl}-5-pyrimidinyl)-2-ethylphenyl]ethyl}-N-methylglycine]", "EC50": "≤ 10"}
{"test_system": "circulating lymphocytes", "experiment": "not given", "settings": "animals and man; cited from earlier work"}
{"compound": "CCCCCCCCc1ccc(CCC(N)(CO)CO)cc1", "note": "[FTY720]", "effect on circulating lymphocytes": "reduce circulating lymphocytes"}
{"test_system": "animal models of immune disorders", "experiment": "not given", "settings": "cited from earlier work"}
{"compound": "CCCCCCCCc1ccc(CCC(N)(CO)CO)cc1", "note": "[FTY720]", "disease modulating activity": "disease modulating activity"}
{"test_system": "not given", "experiment": "not given", "settings": "clinical studies, first 24 hours of treatment; cited from earlier work"}
{"compound": "CCCCCCCCc1ccc(CCC(N)(CO)CO)cc1", "note": "[FTY720]", "bradycardia": "results in bradycardia"}
{"test_system": "S1P3 knock-out animals", "experiment": "not given", "settings": "unlike wild type mice; cited from earlier work"}
{"compound": "CCCCCCCCc1ccc(CCC(N)(CO)CO)cc1", "note": "[FTY720]", "bradycardia": "do not demonstrate bradycardia"}
